Test results as given in ChEMBL document CHEMBL1201862, “PubChem BioAssay data set” (2004).
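Exposure lasted 48 hours, with cells grown in 96-well plates and compounds tested at five concentrations. GI50 marks 50% less growth.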 The source made the active and inactive calls. No stated cut-off is given here; in the data, active = GI50 up to about 1.1 µM and inactive = higher.

Key:
Assay in all cases: inhibition of tumour cell growth, NCI panel, 48 h
786-0 = tested on: 786-0
A498 = tested on: A498
A549 = tested on: A549
ACHN = tested on: ACHN
CAKI-1 = tested on: CAKI-1
CCRF-CEM = tested on: CCRF-CEM
COLO 205 = tested on: COLO 205
DU-145 = tested on: DU-145
EKVX = tested on: EKVX
HCC 2998 = tested on: HCC 2998
HCT-116 = tested on: HCT-116
HL-60 = tested on: HL-60
HOP-62 = tested on: HOP-62
HOP-92 = tested on: HOP-92
HT-29 = tested on: HT-29
Hs-578T = tested on: Hs-578T
IGROV-1 = tested on: IGROV-1
K562 = tested on: K562
KM12 = tested on: KM12
M14 = tested on: M14
MCF7 = tested on: MCF7
MDA-N = tested on: MDA-N
MOLT-4 = tested on: MOLT-4
Malme-3M = tested on: Malme-3M
NCI-H23 = tested on: NCI-H23
NCI-H460 = tested on: NCI-H460
NCI/ADR-RES = tested on: NCI/ADR-RES
OVCAR-4 = tested on: OVCAR-4
OVCAR-5 = tested on: OVCAR-5
OVCAR-8 = tested on: OVCAR-8
PC-3 = tested on: PC-3
RPMI-8226 = tested on: RPMI-8226
RXF 393 = tested on: RXF 393
SF-268 = tested on: SF-268
SF-295 = tested on: SF-295
SK-MEL-28 = tested on: SK-MEL-28
SK-MEL-5 = tested on: SK-MEL-5
SK-OV-3 = tested on: SK-OV-3
SNB-19 = tested on: SNB-19
SNB-75 = tested on: SNB-75
SR = tested on: SR
SW-620 = tested on: SW-620
T47D = tested on: T47D
TK-10 = tested on: TK-10
U-251 = tested on: U-251
UACC-257 = tested on: UACC-257
UO-31 = tested on: UO-31
HCT-15 = tested on: HCT-15
LOX IMVI = tested on: LOX IMVI
MDA-MB-231 = tested on: MDA-MB-231
MDA-MB-435 = tested on: MDA-MB-435
NCI-H226 = tested on: NCI-H226
NCI-H522 = tested on: NCI-H522
OVCAR-3 = tested on: OVCAR-3
SF-539 = tested on: SF-539
SK-MEL-2 = tested on: SK-MEL-2
SN12C = tested on: SN12C

## Cc1cc2c(=O)c3ccccc3oc2c(C#N)c1C
786-0
  GI50: > 100 µM (inactive)
A498
  GI50: > 100 µM (inactive)
A549
  GI50: > 100 µM (inactive)
ACHN
  GI50: > 100 µM (inactive)
CAKI-1
  GI50: > 100 µM (inactive)
CCRF-CEM
  GI50: > 100 µM (inactive)
COLO 205
  GI50: > 100 µM (inactive)
DU-145
  GI50: > 100 µM (inactive)
EKVX
  GI50: > 100 µM (inactive)
HCC 2998
  GI50: > 100 µM (inactive)
HCT-116
  GI50: > 100 µM (inactive)
HL-60
  GI50: > 100 µM (inactive)
HOP-62
  GI50: > 100 µM (inactive)
HOP-92
  GI50: > 100 µM (inactive)
HT-29
  GI50: 43.6 µM (inactive)
Hs-578T
  GI50: > 100 µM (inactive)
IGROV-1
  GI50: > 100 µM (inactive)
K562
  GI50: > 100 µM (inactive)
KM12
  GI50: > 100 µM (inactive)
M14
  GI50: > 100 µM (inactive)
MCF7
  GI50: > 100 µM (inactive)
MDA-N
  GI50: > 100 µM (inactive)
MOLT-4
  GI50: > 100 µM (inactive)
Malme-3M
  GI50: > 100 µM (inactive)
NCI-H23
  GI50: > 100 µM (inactive)
NCI-H460
  GI50: > 100 µM (inactive)
NCI/ADR-RES
  GI50: > 100 µM (inactive)
OVCAR-4
  GI50: > 100 µM (inactive)
OVCAR-5
  GI50: > 100 µM (inactive)
OVCAR-8
  GI50: > 100 µM (inactive)
PC-3
  GI50: 40.3 µM (inactive)
RPMI-8226
  GI50: > 100 µM (inactive)
RXF 393
  GI50: > 100 µM (inactive)
SF-268
  GI50: > 100 µM (inactive)
SF-295
  GI50: > 100 µM (inactive)
SK-MEL-28
  GI50: > 100 µM (inactive)
SK-MEL-5
  GI50: > 100 µM (inactive)
SK-OV-3
  GI50: > 100 µM (inactive)
SNB-19
  GI50: > 100 µM (inactive)
SNB-75
  GI50: > 100 µM (inactive)
SR
  GI50: > 100 µM (inactive)
SW-620
  GI50: > 100 µM (inactive)
T47D
  GI50: > 100 µM (inactive)
TK-10
  GI50: > 100 µM (inactive)
U-251
  GI50: > 100 µM (inactive)
UACC-257
  GI50: > 100 µM (inactive)
UO-31
  GI50: > 100 µM (inactive)

## COc1c(O)c(OC)c(C(=O)/C=C/c2ccccc2)c(O)c1OC [PEDICIN]
786-0
  GI50: 32.4 µM (inactive)
ACHN
  GI50: 23.6 µM (inactive)
CAKI-1
  GI50: 56.1 µM (inactive)
CCRF-CEM
  GI50: 94.6 µM (inactive)
COLO 205
  GI50: 41.7 µM (inactive)
DU-145
  GI50: 29.1 µM (inactive)
EKVX
  GI50: 23.1 µM (inactive)
HCC 2998
  GI50: 68.1 µM (inactive)
HCT-116
  GI50: 17.7 µM (inactive)
HCT-15
  GI50: 28.8 µM
HL-60
  GI50: 58.2 µM (inactive)
HOP-92
  GI50: 21.2 µM (inactive)
HT-29
  GI50: 32.6 µM (inactive)
Hs-578T
  GI50: 30.5 µM (inactive)
IGROV-1
  GI50: 21.3 µM (inactive)
K562
  GI50: 40.6 µM (inactive)
KM12
  GI50: 30.3 µM (inactive)
LOX IMVI
  GI50: 30.3 µM (inactive)
M14
  GI50: 37.6 µM (inactive)
MCF7
  GI50: 26.9 µM (inactive)
MDA-MB-231
  GI50: 21.3 µM (inactive)
MDA-MB-435
  GI50: 27.9 µM (inactive)
MDA-N
  GI50: 20.9 µM (inactive)
MOLT-4
  GI50: 30.5 µM (inactive)
Malme-3M
  GI50: 22.8 µM (inactive)
NCI-H226
  GI50: 29.4 µM (inactive)
NCI-H460
  GI50: 19.1 µM (inactive)
NCI-H522
  GI50: 16 µM (inactive)
NCI/ADR-RES
  GI50: 18.2 µM (inactive)
OVCAR-3
  GI50: 22.2 µM (inactive)
OVCAR-4
  GI50: 27.9 µM (inactive)
OVCAR-5
  GI50: 58.9 µM (inactive)
OVCAR-8
  GI50: 17.9 µM (inactive)
PC-3
  GI50: 41.6 µM (inactive)
RPMI-8226
  GI50: 34.6 µM (inactive)
SF-268
  GI50: 29 µM (inactive)
SF-295
  GI50: 35.6 µM (inactive)
SF-539
  GI50: 30.5 µM (inactive)
SK-MEL-28
  GI50: 33.3 µM (inactive)
SK-MEL-2
  GI50: 24.9 µM (inactive)
SK-MEL-5
  GI50: 20.4 µM (inactive)
SK-OV-3
  GI50: > 100 µM (inactive)
SN12C
  GI50: 18.3 µM (inactive)
SNB-19
  GI50: 92 µM (inactive)
SNB-75
  GI50: 30.3 µM (inactive)
SW-620
  GI50: 27.9 µM (inactive)
T47D
  GI50: 20.9 µM (inactive)
TK-10
  GI50: 36.3 µM (inactive)
U-251
  GI50: 31.9 µM (inactive)
UACC-257
  GI50: > 100 µM (inactive)

## O=c1ccn([C@@H]2O[C@H](CO)[C@@H](O)[C@H]2F)c(=O)[nH]1
A498
  GI50: > 100 µM (inactive)
A549
  GI50: > 100 µM (inactive)
ACHN
  GI50: > 100 µM (inactive)
COLO 205
  GI50: > 100 µM (inactive)
DU-145
  GI50: > 100 µM (inactive)
HCC 2998
  GI50: > 100 µM (inactive)
HCT-116
  GI50: > 99.8 µM (inactive)
HCT-15
  GI50: > 99.5 µM
HOP-62
  GI50: > 100 µM (inactive)
HT-29
  GI50: > 100 µM (inactive)
Hs-578T
  GI50: > 100 µM (inactive)
IGROV-1
  GI50: > 100 µM (inactive)
M14
  GI50: > 100 µM (inactive)
MDA-MB-231
  GI50: > 100 µM (inactive)
MDA-MB-435
  GI50: > 100 µM (inactive)
MDA-N
  GI50: > 100 µM (inactive)
NCI-H226
  GI50: > 100 µM (inactive)
NCI-H23
  GI50: > 100 µM (inactive)
NCI-H460
  GI50: 88.7 µM (inactive)
NCI/ADR-RES
  GI50: > 100 µM (inactive)
OVCAR-4
  GI50: > 100 µM (inactive)
OVCAR-5
  GI50: > 100 µM (inactive)
OVCAR-8
  GI50: > 100 µM (inactive)
SF-268
  GI50: > 100 µM (inactive)
SF-295
  GI50: > 100 µM (inactive)
SF-539
  GI50: > 100 µM (inactive)
SK-MEL-28
  GI50: > 100 µM (inactive)
SK-MEL-2
  GI50: > 100 µM (inactive)
SK-OV-3
  GI50: > 100 µM (inactive)
SN12C
  GI50: > 100 µM (inactive)
SNB-19
  GI50: > 100 µM (inactive)
SNB-75
  GI50: > 100 µM (inactive)
TK-10
  GI50: > 100 µM (inactive)
U-251
  GI50: 95.1 µM (inactive)
UACC-257
  GI50: > 100 µM (inactive)
UO-31
  GI50: > 100 µM (inactive)

## O=S(=O)(O)c1cc(O)c(/N=N/c2ccc(O)cc2O)c2ccccc12
786-0
  GI50: > 100 µM (inactive)
A549
  GI50: 59.3 µM (inactive)
ACHN
  GI50: > 100 µM (inactive)
CAKI-1
  GI50: > 100 µM (inactive)
CCRF-CEM
  GI50: 40.6 µM (inactive)
COLO 205
  GI50: 38.1 µM (inactive)
EKVX
  GI50: 30.9 µM (inactive)
HCT-116
  GI50: 36.6 µM (inactive)
HCT-15
  GI50: 64 µM
HL-60
  GI50: 80.5 µM (inactive)
HOP-62
  GI50: 66.7 µM (inactive)
HOP-92
  GI50: > 100 µM (inactive)
HT-29
  GI50: 8.97 µM (inactive)
Hs-578T
  GI50: > 100 µM (inactive)
IGROV-1
  GI50: 22.8 µM (inactive)
K562
  GI50: > 100 µM (inactive)
KM12
  GI50: 20.9 µM (inactive)
LOX IMVI
  GI50: 53.1 µM (inactive)
M14
  GI50: 42.7 µM (inactive)
MDA-MB-231
  GI50: 85.7 µM (inactive)
MDA-MB-435
  GI50: 51.3 µM (inactive)
MDA-N
  GI50: > 100 µM (inactive)
MOLT-4
  GI50: 42.2 µM (inactive)
Malme-3M
  GI50: 76.4 µM (inactive)
NCI-H226
  GI50: 3.17 µM (inactive)
NCI-H522
  GI50: 24.1 µM (inactive)
NCI/ADR-RES
  GI50: 38.6 µM (inactive)
OVCAR-3
  GI50: 27.2 µM (inactive)
OVCAR-4
  GI50: > 100 µM (inactive)
OVCAR-5
  GI50: 46.8 µM (inactive)
OVCAR-8
  GI50: 30.8 µM (inactive)
PC-3
  GI50: 53.5 µM (inactive)
RPMI-8226
  GI50: > 100 µM (inactive)
RXF 393
  GI50: > 100 µM (inactive)
SF-268
  GI50: 37.5 µM (inactive)
SF-295
  GI50: 61.8 µM (inactive)
SK-MEL-28
  GI50: > 100 µM (inactive)
SK-MEL-2
  GI50: > 100 µM (inactive)
SK-MEL-5
  GI50: > 100 µM (inactive)
SK-OV-3
  GI50: 49.1 µM (inactive)
SN12C
  GI50: > 100 µM (inactive)
SNB-19
  GI50: > 100 µM (inactive)
SNB-75
  GI50: > 100 µM (inactive)
SR
  GI50: > 100 µM (inactive)
SW-620
  GI50: 86.3 µM (inactive)
TK-10
  GI50: > 100 µM (inactive)
U-251
  GI50: > 100 µM (inactive)
UACC-257
  GI50: > 100 µM (inactive)

## C/C=C/C=C/c1cc2cc3c(c(O)c2c(=O)[nH]1)C1(CC3)C(=O)c2c(O)c3c(c(O)c2C1=O)C(=O)C(OC)=CC3=O (stereo not drawn)
DU-145
  GI50: 0.378 µM (active)
HL-60
  GI50: < 0.01 µM (active)
HOP-92
  GI50: 0.0328 µM (active)
Hs-578T
  GI50: 0.132 µM (active)
LOX IMVI
  GI50: 0.0205 µM (active)
MCF7
  GI50: 0.0681 µM (active)
MDA-MB-231
  GI50: 0.203 µM (active)
MDA-MB-435
  GI50: 0.303 µM (active)
MDA-N
  GI50: 0.267 µM (active)
NCI/ADR-RES
  GI50: 0.283 µM (active)
PC-3
  GI50: 0.0573 µM (active)
T47D
  GI50: < 0.01 µM (active)
